Measured values: patent publication US6849598B1, “Therapeutic compositions comprising bactericidal/permeability-increasing (BPI) protein products” (XOMA, priority 1995, dated 2005)

B1: rBPI21: expression product of DNA encoding amino acid 1 to approximately 193 or 199 of BPI holoprotein, cysteine 132 substituted with alanine (protein, UniProt P17213 32-224, looked up, variant C132A)
chain: VNPGVVVRISQKGLDYASQQGTAALQKELKRIKIPDYSDSFKIKHLGKGHYSFYSMDIREFQLPSSQISMVPNVGLKFSISNANIKISGKWKAQKRFLKMSGNFDLSIEGMSISADLKLGSNPTSGKPTITASSCSSHINSVHVHISKSKVGWLIQLFHKKIESALRNKMNSQVCEKVTNSVSSELQPYFQTL

Legend:
Type in all cases: cell-based
[1] = test system: P. aeruginosa (ATCC 19660); experiment: Antibiotic susceptibility (MIC, Microscan® MIC Plus Type 2 panel) with rBPI21/P123 and EDTA; set-up: key to susceptibility interpretation of MIC (superscript): R: resistant; I: intermediate; S: susceptible; conditions: for effect of EDTA added to the rBPI21/P123 formulation on susceptibility of the strain to the antibiotic: summary of Table 17
A. baumannii [2] = experiment: Bactericidal activity with heat-treated PLURONIC P104 in serial 2-fold dilutions of serum; conditions: formulated BPI protein product diluted with heat-treated PLURONIC P104 solution
Protocol: Additional experiments were performed to test therapeutic compositions, prepared by diluting a variety of formulated BPI protein products with heat-treated PLURONIC P104 solution, and tested against A. baumannii in serial 2-fold dilutions of serum.

A. baumannii [3] = experiment: Bactericidal activity in water, TSB, CSMHB or serum, CFU after 24 hours (Example 5)
Protocol: (§1) The bactericidal activity of therapeutic compositions comprising BPI protein product and PLURONIC F68, P103, P104, P105 or P123 were evaluated against the S. aureus and A. baumannii organisms of Example 1, the S. pneumoniae organism of Example 3, an E. faecium organism (Microscan® ID No. 16866), and a strain of P. aeruginosa from the American Type Culture Collection (ATCC No. 19660). Therapeutic compositions were formulated by adding the appropriate amount of poloxamer to a stock solution of 2.2 mg/mL rBPI21 (5 mM sodium citrate, 150 mM NaCl, without poloxamer), to achieve the desired 0.2% (w/v) poloxamer concentration, followed by sterile filtration. Formulated product was stored at 2-8° C. for up to 6 months. Sterile stock solutions of poloxamer were made by dissolving the poloxamer paste in water for injection (WFI, Kendall-McGaw) with mixing to a 1-5% concentration (w/v) at room temperature, followed by sterile filtration. Assays were conducted in 96-well microtiter plates using WFI, tryptic soy broth (TSB, Remel, Lenexa, Kans.), Mueller-Hinton Broth plus Cations (CSMHB, Remel), or 40% pooled human serum in CSMHB (Sigma, St. Louis, Mo.) as growth media, according to the general procedure described above in Examples 2 and 3.

[4] = test system: E. faecium (Microscan® ID No. 16866); experiment: as above
Protocol: as §1

S. aureus = experiment: as above
Protocol: as §1

S. pneumoniae = experiment: as above; conditions: Control 3 × 10^5
Protocol: as §1

[5] = rBPI21/P123 at 64 μg/ml rBPI21, With 0% EDTA
[6] = rBPI21/P123 at 64 μg/ml rBPI21, With 0.01% EDTA
[7] = rBPI21/P123 at 64 μg/ml rBPI21, With 0.05% EDTA
[8] = rBPI21/P123 at 64 μg/ml rBPI21, With 0.1% EDTA

Molecule | Minimum Inhibitory Concentration of Antibiotic ([1]; Control (No BPI21)) [µg/mL] | susceptibility interpretation of MIC (superscript) ([1]; Control (No BPI21)) | Minimum Inhibitory Concentration of Antibiotic [1, 5] [µg/mL] | susceptibility interpretation of MIC (superscript) [1, 5] | Minimum Inhibitory Concentration of Antibiotic [1, 6] [µg/mL] | susceptibility interpretation of MIC (superscript) [1, 6] | Minimum Inhibitory Concentration of Antibiotic [1, 7] [µg/mL] | susceptibility interpretation of MIC (superscript) [1, 7] | Minimum Inhibitory Concentration of Antibiotic [1, 8] [µg/mL] | susceptibility interpretation of MIC (superscript) [1, 8] | effect of EDTA added to the rBPI21/P123 formulation on susceptibility of the strain to the antibiotic [1] | further results
O=C(N[C@H](CO)[C@H](O)c1ccc([N+](=O)[O-])cc1)C(Cl)Cl [Chloramphenicol] | > 16 | R | 8 | S | 16 | I | < 2 | S | < 2 | S | reversing resistance | 
CC(C)(O/N=C(\C(=O)N[C@@H]1C(=O)N2C(C(=O)[O-])=C(C[n+]3ccccc3)CS[C@H]12)c1csc(N)n1)C(=O)O [Ceftazidime] | 2 | S | < 1 | S | < 1 | S | < 1 | S | < 1 | S |  | 
CO/N=C(\C(=O)N[C@@H]1C(=O)N2C(C(=O)O)=C(CSc3nc(=O)c(=O)[nH]n3C)CS[C@H]12)c1csc(N)n1 [Ceftriaxone] | 16 | I | 4 | S | 8 | S | < 2 | S | < 2 | S | increasing the susceptibility | 
CO/N=C(\C(=O)N[C@@H]1C(=O)N2C(C(=O)O)=CCS[C@H]12)c1csc(N)n1 [Ceftizoxime] | 32 | I | 16 | I | < 2 | S | 8 | S | < 2 | S | increasing the susceptibility | 
B1 |  |  |  |  |  |  |  |  |  |  |  | serum concentrations at which bactericidal activity was observed (A. baumannii [2]): ≤ 6.25%; colony forming units after 24 hours of incubation (A. baumannii [3]; Serum (40% pooled human serum in CSMHB), Control 2 × 10^5): 2 × 10^5; colony forming units after 24 hours of incubation (A. baumannii [3]; TSB, Control 3 × 10^6): 6 × 10^2; colony forming units after 24 hours of incubation (A. baumannii [3]; Water, Control 2 × 10^6): <100; colony forming units after 24 hours of incubation ([4]; TSB, Control 5 × 10^5): 5 × 10^5; colony forming units after 24 hours of incubation ([4]; Water, Control 4 × 10^5): 100; colony forming units after 24 hours of incubation (S. aureus; Serum (40% pooled human serum in CSMHB), Control 4.2 × 10^5): >1 × 10^5; colony forming units after 24 hours of incubation (S. aureus; TSB, Control 5.4 × 10^5): 5.7 × 10^5; colony forming units after 24 hours of incubation (S. aureus; Water, Control 8.2 × 10^5): 3.2 × 10^4; colony forming units after 24 hours of incubation (S. pneumoniae): 5 × 10^4
